Test results as given in US20070128217A1 (priority 2003, published 2007).

Experiments:
[1] = test system: recombinant human anti-SARS-CoV antibody 03-018; assay type: binding; parameters: Binding of antibody 03-018 to linear peptides of the N protein of SARS-CoV Urbani / Binding of antibody 03-018 to looped/cyclic peptides of the N protein of SARS-CoV Urbani: unit not given here
[2] = test system: antibodies in sera from SARS patients (sera 1a, 1b, 2, 6, 37, 62, London, SARS-yellow, SARS-green); assay type: binding, human; parameters: Binding of serum 6 to linear peptides of protein X1 of SARS-CoV Urbani / Binding of serum 37 to linear peptides of protein X1 of SARS-CoV Urbani / Binding of serum 6 to looped/cyclic peptide (PEPSCAN-ELISA) / Binding of serum 37 to looped/cyclic peptide (PEPSCAN-ELISA) / Binding of serum 37 to looped/cyclic peptides of protein X1 of SARS-CoV Urbani / Binding of serum 6 to linear peptides of protein X2 / Binding of serum 37 to linear peptides of protein X2 / Binding of serum 37 to looped/cyclic peptides of protein X2 of SARS-CoV Urbani / Binding of serum 6 to linear peptides of protein M of SARS-CoV Urbani / Binding of serum 37 to linear peptides of protein M of SARS-CoV Urbani / Binding of serum 6 to looped/cyclic peptides of protein M of SARS-CoV Urbani / Binding of serum 37 to looped/cyclic peptides of protein M of SARS-CoV Urbani / Binding of serum 6 to linear peptides of protein X3 of SARS-CoV Urbani / Binding of serum 37 to linear peptides of protein X3 of SARS-CoV Urbani / Binding of serum 37 to looped/cyclic peptides of protein X3 of SARS-CoV Urbani / Binding of serum 6 to linear peptides of protein X4 of SARS-CoV Urbani / Binding of serum 37 to linear peptides of protein X4 of SARS-CoV Urbani / Binding of serum 37 to looped/cyclic peptides of protein X4 of SARS-CoV Urbani / Binding of serum 6 to linear peptides of protein X5 of SARS-CoV Urbani / Binding of serum 37 to linear peptides of protein X5 of SARS-CoV Urbani / Binding of serum 37 to looped/cyclic peptides of protein X5 of SARS-CoV Urbani / Binding of serum 6 to linear peptides of protein N of SARS-CoV Urbani / Binding of serum 37 to linear peptides of protein N of SARS-CoV Urbani / Binding of serum 6 to linear peptide (PEPSCAN-ELISA) / Binding of serum 1a to looped/cyclic peptides of protein N of SARS-CoV Urbani / Binding of serum 1b to looped/cyclic peptides of protein N of SARS-CoV Urbani / Binding of serum 2 to looped/cyclic peptides of protein N of SARS-CoV Urbani / Binding of serum 6 to looped/cyclic peptides of protein N of SARS-CoV Urbani / Binding of serum 37 to looped/cyclic peptides of protein N of SARS-CoV Urbani / Binding of serum 62 to looped/cyclic peptides of protein N of SARS-CoV Urbani / Binding of serum London to looped/cyclic peptides of protein N of SARS-CoV Urbani / Binding of serum SARS-green to looped/cyclic peptides of protein N of SARS-CoV Urbani: unit not given here
[3] = test system: control sera (pooled serum of ten healthy LUMC hospital workers; commercial negative donor pooled serum from the Dutch bloodbank); assay type: binding, human; parameters: Binding of Control serum LUMC to linear peptides / Binding of Control serum Blood-bank to linear peptides / Binding of Control serum LUMC to looped peptides / Binding of Control Serum Blood-Bank to Looped peptides / Binding of Control serum LUMC to linear peptides of the protein M of SARS-CoV Urbani / Binding of Control serum Blood-bank to linear peptides of the protein M of SARS-CoV Urbani / Binding of Control serum LUMC to looped peptides of the protein M of SARS-CoV Urbani / Binding of Control Serum Blood-Bank to Looped peptides of the protein M of SARS-CoV Urbani: unit not given here
[4] = test system: rabbit serum obtained by immunizing a rabbit with the SARS-CoV strain Frankfurt 1; assay type: binding; parameters: Binding of a rabbit serum to linear peptides / Binding of a rabbit serum to looped peptides / Rabbit serum linear peptides / Rabbit serum looped peptides / Binding of a rabbit serum to linear peptides of protein N of SARS-CoV Urbani (Rabbit serum linear peptides) / Binding of a rabbit serum to looped/cyclic peptides of protein N of SARS-CoV Urbani (Rabbit serum looped peptides): unit not given here

Row | Sequence | Binding of antibody 03-018 to linear peptides of the N protein of SARS-CoV Urbani [1] | Binding of antibody 03-018 to looped/cyclic peptides of the N protein of SARS-CoV Urbani [1] | Binding of serum 1a to linear peptides of protein N of SARS-CoV Urbani [2] | Binding of serum 1a to looped/cyclic peptides of protein N of SARS-CoV Urbani [2] | Binding of serum 1b to linear peptides of protein N of SARS-CoV Urbani [2] | Binding of serum 1b to looped/cyclic peptides of protein N of SARS-CoV Urbani [2] | Binding of serum 2 to linear peptides of protein N of SARS-CoV Urbani [2] | Binding of serum 2 to looped/cyclic peptides of protein N of SARS-CoV Urbani [2] | Binding of serum 6 to linear peptides of protein N of SARS-CoV Urbani [2] | Binding of serum 6 to looped/cyclic peptides of protein N of SARS-CoV Urbani [2] | Binding of serum 37 to linear peptides of protein N of SARS-CoV Urbani [2] | Binding of serum 37 to looped/cyclic peptides of protein N of SARS-CoV Urbani [2] | Binding of serum 62 to linear peptides of protein N of SARS-CoV Urbani [2] | Binding of serum 62 to looped/cyclic peptides of protein N of SARS-CoV Urbani [2] | Binding of serum London to linear peptides of protein N of SARS-CoV Urbani [2] | Binding of serum London to looped/cyclic peptides of protein N of SARS-CoV Urbani [2] | Binding of serum SARS-green to linear peptides of protein N of SARS-CoV Urbani [2] | Binding of serum SARS-green to looped/cyclic peptides of protein N of SARS-CoV Urbani [2] | Binding of serum SARS-yellow to linear peptides of protein N of SARS-CoV Urbani [2] | Binding of serum SARS-yellow to looped/cyclic peptides of protein N of SARS-CoV Urbani [2] | other results
1 | FYYLGTGPEASLPYG | 0.1 | 0.2 | 0.3 | 0.4 | 0.1 | 0.3 | 0.2 | 0.4 | 0.2 | 0.2 | 0.6 | 0.7 | 0.7 | 0.6 | 0.5 | 0.5 | 0.4 | 0.4 | 0.7 | 0.7 | Binding of Control Serum Blood-Bank to Looped peptides [3]: 0.7; Binding of Control serum Blood-bank to linear peptides [3]: 0.6; Binding of Control serum LUMC to linear peptides [3]: 0.7; Binding of Control serum LUMC to looped peptides [3]: 0.7; Binding of a rabbit serum to linear peptides of protein N of SARS-CoV Urbani (Rabbit serum linear peptides) [4]: 0.1; Binding of a rabbit serum to looped/cyclic peptides of protein N of SARS-CoV Urbani (Rabbit serum looped peptides) [4]: 0.6
2 | GAIKLDDKDPQFKDN | 0.1 | 0.2 | 0.2 | 0.3 | 0.1 | 0.2 | 0.2 | 0.4 | 0.2 | 0.2 | 0.7 | 0.5 | 0.9 | 0.5 | 0.6 | 0.4 | 0.5 | 0.8 | 0.7 | 0.5 | Control Serum Blood-Bank Looped peptides [3]: 0.6; Control serum Blood-bank linear peptides [3]: 0.7; Control serum LUMC linear peptides [3]: 0.7; Control serum LUMC looped peptides [3]: 0.5; Binding of a rabbit serum to linear peptides of protein N of SARS-CoV Urbani (Rabbit serum linear peptides) [4]: 0.1; Binding of a rabbit serum to looped/cyclic peptides of protein N of SARS-CoV Urbani (Rabbit serum looped peptides) [4]: 0.3
3 | GANKEGIVWVATEGA | 0.1 | 0.2 | 0.2 | 0.2 | 0.1 | 0.1 | 0.2 | 0.2 | 0.1 | 0.1 | 0.7 | 0.5 | 0.6 | 0.3 | 0.4 | 0.3 | 0.2 | 0.2 | 0.6 | 0.4 | Binding of Control Serum Blood-Bank to Looped peptides [3]: 0.4; Binding of Control serum Blood-bank to linear peptides [3]: 0.5; Binding of Control serum LUMC to linear peptides [3]: 0.5; Binding of Control serum LUMC to looped peptides [3]: 0.5; Binding of a rabbit serum to linear peptides of protein N of SARS-CoV Urbani (Rabbit serum linear peptides) [4]: 0.2; Binding of a rabbit serum to looped/cyclic peptides of protein N of SARS-CoV Urbani (Rabbit serum looped peptides) [4]: 0.5
4 | GARPKQRRPQGLPNN | 0.1 | 0.2 | 0.2 | 0.3 | 0.1 | 0.1 | 0.2 | 0.4 | 0.1 | 0.3 | 0.4 | 0.4 | 0.6 | 0.5 | 0.5 | 0.4 | 0.3 | 0.4 | 0.6 | 0.2 | Binding of Control Serum Blood-Bank to Looped peptides [3]: 0.5; Binding of Control serum Blood-bank to linear peptides [3]: 0.7; Binding of Control serum LUMC to linear peptides [3]: 0.7; Binding of Control serum LUMC to looped peptides [3]: 0.6; Binding of a rabbit serum to linear peptides of protein N of SARS-CoV Urbani (Rabbit serum linear peptides) [4]: 0.1; Binding of a rabbit serum to looped/cyclic peptides of protein N of SARS-CoV Urbani (Rabbit serum looped peptides) [4]: 0.2
